Tests used:
G810S mutant RET kinase = G810S mutant RET kinase (Homo sapiens, UniProt P07949, G810S); experiment: biochemical;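 note: HTRF KinEASE-TK kinase assay with recombinant enzyme, 1 h at 22 °C, dual-wavelength ratiometric read-out, percent of control (DMSO-only = 100, pre-quenched reaction = 0)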
G810R mutant RET kinase = G810R mutant RET kinase (Homo sapiens, UniProt P07949, G810R); experiment: biochemical;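 note: HTRF KinEASE-TK enzymatic assay with 1 nM recombinant RET G810R, 1 h at 22 °C, dual-wavelength ratiometric readout, 100% control without compound, 0% from pre-quenched reactions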
Description: (§1) The potency of compounds inhibiting several different RET kinase forms (Wild Type, V804M, G810R, & G810S) were determined using CisBio's HTRF® KinEASE™-TK assay technology. […] After a 1 hour incubation at 22° C., the extent of reaction was determined using a PerkinElmer EnVision multimode plate reader via HTRF dual wavelength detection, and the percent of control (POC) was calculated using a ratiometric emission factor. One hundred POC was determined using DMSO only samples (no compound present), and 0 POC was determined using pre-quenched control reactions.
The potency of a compound inhibiting G810R or G810S mutant RET kinase was determined using CisBio's HTRF® KinEASE™-TK assay technology. The assays contained G810R or G810S mutant RET produced at Array Biopharma, Inc. (1 nM enzyme). […] After a 1-h incubation at 22° C., the extent of reaction was determined using a PerkinElmer EnVision multimode plate reader via HTRF dual wavelength detection, and the percent of control (POC) was calculated using a ratiometric emission factor. One hundred POC was determined using no test compounds, and 0 POC was determined using pre-quenched control reactions.

RET kinase V804M = RET kinase V804M (Homo sapiens, UniProt P07949, V804M); experiment: RET Enzyme Assay (CisBio HTRF KinEASE-TK), V804M; assay type: biochemical; conditions: read-out: RET V804M Enz FRET IC50
RET kinase Wild Type = RET kinase Wild Type (Homo sapiens, UniProt P07949); experiment: biochemical;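 note: HTRF kinase activity assay on RET enzyme, 1 h reaction at 22 °C, dual-wavelength readout as percent of control, DMSO-only wells as 100%, pre-quenched reactions as 0%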
RET kinase Wild Type, sequence (P07949 29-1114): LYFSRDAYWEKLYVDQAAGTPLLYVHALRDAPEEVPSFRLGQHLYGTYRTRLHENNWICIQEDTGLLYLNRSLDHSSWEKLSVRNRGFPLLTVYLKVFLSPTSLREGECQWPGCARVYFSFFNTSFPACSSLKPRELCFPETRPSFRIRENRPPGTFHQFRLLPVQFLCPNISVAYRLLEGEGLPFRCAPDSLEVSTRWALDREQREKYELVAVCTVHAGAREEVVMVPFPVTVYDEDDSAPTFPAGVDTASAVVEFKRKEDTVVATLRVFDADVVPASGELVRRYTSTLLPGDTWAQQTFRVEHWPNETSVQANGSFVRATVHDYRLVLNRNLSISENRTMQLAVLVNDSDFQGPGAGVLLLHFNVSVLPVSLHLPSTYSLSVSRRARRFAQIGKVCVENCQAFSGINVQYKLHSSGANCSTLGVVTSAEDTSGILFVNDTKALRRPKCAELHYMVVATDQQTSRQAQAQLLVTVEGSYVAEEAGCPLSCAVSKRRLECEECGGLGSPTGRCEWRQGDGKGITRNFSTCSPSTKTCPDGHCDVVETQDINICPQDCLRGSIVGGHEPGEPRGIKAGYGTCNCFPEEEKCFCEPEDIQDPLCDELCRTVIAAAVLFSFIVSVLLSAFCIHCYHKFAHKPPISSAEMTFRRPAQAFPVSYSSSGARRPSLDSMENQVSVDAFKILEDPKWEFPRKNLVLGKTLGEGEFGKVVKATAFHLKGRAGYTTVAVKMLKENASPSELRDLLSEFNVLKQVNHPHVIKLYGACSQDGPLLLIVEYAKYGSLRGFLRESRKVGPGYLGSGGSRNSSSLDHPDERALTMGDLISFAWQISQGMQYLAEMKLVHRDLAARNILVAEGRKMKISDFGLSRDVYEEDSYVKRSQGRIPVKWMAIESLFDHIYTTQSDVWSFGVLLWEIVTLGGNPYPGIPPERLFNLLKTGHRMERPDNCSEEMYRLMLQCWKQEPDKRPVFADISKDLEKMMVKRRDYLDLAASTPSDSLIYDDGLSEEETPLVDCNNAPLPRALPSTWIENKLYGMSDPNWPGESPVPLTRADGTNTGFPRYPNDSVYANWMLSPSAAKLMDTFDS
Description: as §1

G810R mutant RET kinase, sequence (P07949 29-1114 G810R): as the sequence (P07949 29-1114) above, with G782R counted along it
G810S mutant RET kinase, sequence (P07949 29-1114 G810S): as the sequence (P07949 29-1114) above, with G782S counted along it
RET kinase V804M, sequence (P07949 29-1114 V804M): as the sequence (P07949 29-1114) above, with V776M counted along it

Row | IC50 (G810S mutant RET kinase) | IC50 (G810R mutant RET kinase) | IC50 (RET kinase V804M) | IC50 (RET kinase Wild Type) | Compound
1 | 758 nM | 154 nM | 216 nM | 183 nM | Nc1ncnc2c1c1c(n2C2CC(F)(F)C2)CCC(O)c2c-1noc2C1CC1 (stereo not shown) [Example 148, 11-amino-3-cyclopropyl-7-(3,3-difluorocyclobutyl)-4,5,6,7-tetrahydroisoxazolo[4″,3″:6′,7′]cyclohepta[1′,2′:4,5]pyrrolo[2,3-d]pyrimidin-4-ol 2,2,2-trifluoroacetate]
2 | – | 7880 nM | – | 2440 nM | CC(C)n1c2c(c3c(N)ncnc31)-c1ccc(NC(=O)CC3CC3)cc1C(=O)NC2 [Example 48, N-(12-amino-8-isopropyl-5-oxo-5,6,7,8-tetrahydrobenzo[c]pyrimido[5′,4′:4,5]pyrrolo[3,2-e]azepin-3-yl)-2-cyclopropylacetamide]
3 | 2270 nM | 1810 nM | – | 1780 nM | CC(C)n1c2c(c3c(N)ncnc31)-c1cnn(C3CC3)c1C(=O)NC2 [Example 109, 11-amino-3-cyclopropyl-7-isopropyl-3,5,6,7-tetrahydro-4H-pyrazolo[3,4-c]pyrimido[5′,4′:4,5]pyrrolo[3,2-e]azepin-4-one 2,2,2-trifluoroacetate]
4 | 433 nM | 533 nM | 241 nM | 49 nM | CC(C)n1c2c(c3c(N)ncnc31)-c1noc(C3CC3)c1C(=O)N(C1CCN(Cc3ccccc3)C1)C2 (stereo not shown) [Example 17, 11-amino-5-(1-benzylpyrrolidin-3-yl)-3-cyclopropyl-7-isopropyl-6,7-dihydroisoxazolo[4,3-c]pyrimido[5′,4′:4,5]pyrrolo[3,2-e]azepin-4(5H)-one]
5 | 397 nM | 288 nM | 805 nM | 227 nM | CC(C)n1c2c(c3c(N)ncnc31)-c1noc(C3CC3)c1CN(c1ccn(C)n1)C2 [Example 34, 3-cyclopropyl-7-isopropyl-5-(1-methyl-1H-pyrazol-3-yl)-4,5,6,7-tetrahydroisoxazolo[4,3-c]pyrimido[5′,4′:4,5]pyrrolo[3,2-e]azepin-11-amine]
6 | 634 nM | 244 nM | – | 182 nM | CC(C)n1c2c(c3c(N)ncnc31)-c1cc3ccc(Cl)cc3n1C(=O)NC2 [Example 84, 1-amino-11-chloro-5-isopropyl-6,7-dihydropyrimido[5″,4″:4′,5′]pyrrolo[2′,3′: 5,6][1,3]diazepino[1,7-a]indol-8(5H)-one]
7 | 2710 nM | 3300 nM | 6240 nM | 3440 nM | Nc1ncnc2[nH]c3c(c12)-c1noc(C2CC2)c1C(=O)CC3 [Example 111, 11-amino-3-cyclopropyl-6,7-dihydroisoxazolo[4″,3″:6′,7′]cyclohepta[1′,2′:4,5]pyrrolo[2,3-d]pyrimidin-4(5H)-one]
8 | 821 nM | 420 nM | – | 358 nM | CC(C)n1c2c(c3c(N)ncnc31)-c1cc3ccc(C(F)(F)F)cc3n1C(=O)NC2 [Example 82, 1-amino-5-isopropyl-11-(trifluoromethyl)-6,7-dihydropyrimido[5″,4″:4′,5′]pyrrolo[2′,3′: 5,6][1,3]diazepino[1,7-a]indol-8(5H)-one]
9 | 1220 nM | 1280 nM | – | 318 nM | CCC(=O)N1Cc2c(noc2C2CC2)-c2c(n(C(C)C)c3ncnc(N)c23)C1 [Example 37, 1-(11-amino-3-cyclopropyl-7-isopropyl-6,7-dihydroisoxazolo[4,3-c]pyrimido[5′,4′:4,5]pyrrolo[3,2-e]azepin-5(4H)-yl)propan-1-one 2,2,2-trifluoroacetate]
10 | 404 nM | 320 nM | – | 195 nM | Cc1ccc2cc3n(c2c1)C(=O)NCc1c-3c2c(N)ncnc2n1C(C)C [Example 80, 1-amino-5-isopropyl-11-methyl-6,7-dihydropyrimido[5″,4″:4′,5′]pyrrolo[2′,3′: 5,6][1,3]diazepino[1,7-a]indol-8(5H)-one]
11 | – | – | – | 8420 nM | CC(C)n1c2c(c3c(N)ncnc31)-c1ccc(NC(=O)NC3CC3)cc1C(=O)NC2 [Example 49, 1-(12-amino-8-isopropyl-5-oxo-5,6,7,8-tetrahydrobenzo[c]pyrimido[5′,4′:4,5]pyrrolo[3,2-e]azepin-3-yl)-3-cyclopropylurea]
12 | 3250 nM | 2210 nM | – | 881 nM | CC(C)n1c2c(c3c(N)ncnc31)-c1cc3ccc(C(=O)Nc4ccn(CC(=O)N(C)C)n4)cc3n1CCC2 [Example 99, 1-amino-N-(1-(2-(dimethylamino)-2-oxoethyl)-1H-pyrazol-3-yl)-5-isopropyl-5,6,7,8-tetrahydropyrimido[5″,4″:4′,5′]pyrrolo[3′,2′: 3,4]azepino[1,2-a]indole-11-carboxamide]
13 | 4140 nM | 3070 nM | – | 893 nM | CC(C)n1c2c(c3c(N)ncnc31)-c1noc(C3CC3)c1CN(C(=O)Cc1ccccc1)C2 [Example 39, 1-(11-amino-3-cyclopropyl-7-isopropyl-6,7-dihydroisoxazolo[4,3-c]pyrimido[5′,4′:4,5]pyrrolo[3,2-e]azepin-5(4H)-yl)-2-phenylethan-1-one]
14 | 3270 nM | 2420 nM | – | 404 nM | CC(C)n1c2c(c3c(N)ncnc31)-c1cc(C3CC3)nn1C(=O)NC2 [Example 106, 12-Amino-2-cyclopropyl-8-isopropyl-7,8-dihydropyrazolo[1,5-c]pyrimido[5′,4′:4,5]pyrrolo[3,2-e][1,3]diazepin-5(6H)-one]
15 | 7950 nM | 4070 nM | – | 2210 nM | Cc1cc(NC(=O)c2ccc3cc4n(c3c2)CCCc2c-4c3c(N)ncnc3n2C(C)C)nn1C [Example 98, 1-amino-N-(1,5-dimethyl-1H-pyrazol-3-yl)-5-isopropyl-5,6,7,8-tetrahydropyrimido[5″,4″:4′,5′]pyrrolo[3′,2′: 3,4]azepino[1,2-a]indole-11-carboxamide]
16 | 5080 nM | 2570 nM | – | 2180 nM | CC(C)n1c2c(c3c(N)ncnc31)-c1ccc(Cl)c(F)c1C(=O)NC2 [Example 50, 12-amino-3-chloro-4-fluoro-8-isopropyl-7,8-dihydrobenzo[c]pyrimido[5′,4′:4,5]pyrrolo[3,2-e]azepin-5(6H)-one]
17 | 960 nM | 501 nM | – | 389 nM | COc1ccc2c(c1)cc1n2C(=O)NCc2c-1c1c(N)ncnc1n2C(C)C [Example 85, 1-amino-5-isopropyl-12-methoxy-6,7-dihydropyrimido[5″,4″:4′,5′]pyrrolo[2′,3′:5,6][1,3]diazepino[1,7-a]indol-8(5H)-one]
18 | 591 nM | 270 nM | – | 356 nM | COc1ccc2cc3n(c2c1)C(=O)NCc1c-3c2c(N)ncnc2n1C(C)C [Example 79, 1-amino-5-isopropyl-11-methoxy-6,7-dihydropyrimido[5″,4″:4′,5′]pyrrolo[2′,3′: 5,6][1,3]diazepino[1,7-a]indol-8(5H)-one]
19 | 720 nM | 507 nM | – | 638 nM | CC(C)n1c2c(c3c(N)ncnc31)-c1cc3cc(C#N)ccc3n1C(=O)NC2 [Example 78, 1-amino-5-isopropyl-8-oxo-5,6,7,8-tetrahydropyrimido[5″,4″:4′,5′]pyrrolo[2′,3′: 5,6][1,3]diazepino[1,7-a]indole-12-carbonitrile]

Source: patent US11964988B2, “Fused heterocyclic compounds as RET kinase inhibitors” (ARRAY BIOPHARMA INC., priority 2018, dated 2024)
